Experimental data as given in the Kinase Knowledgebase extract (Sharma et al. 2016).

Columns and labels:
PIK3CA (human) = PIK3CA (human) (UniProt P42336); assay: Assessment of PI3KCA Kinase Activity
PIK3CG (human) = PIK3CG (human) (UniProt P48736); assay: Assessment of PI3KCG Kinase Activity
PIK3CD (Human) = PIK3CD (Human) (UniProt O00329); assay: Assessment of PI3KCD Kinase Activity
PIK3CB (Human) = PIK3CB (Human) (UniProt P42338); assay: Assessment of PI3KCB Kinase Activity
PIK3CB (Human), sequence (P42338 whole entry, looked up): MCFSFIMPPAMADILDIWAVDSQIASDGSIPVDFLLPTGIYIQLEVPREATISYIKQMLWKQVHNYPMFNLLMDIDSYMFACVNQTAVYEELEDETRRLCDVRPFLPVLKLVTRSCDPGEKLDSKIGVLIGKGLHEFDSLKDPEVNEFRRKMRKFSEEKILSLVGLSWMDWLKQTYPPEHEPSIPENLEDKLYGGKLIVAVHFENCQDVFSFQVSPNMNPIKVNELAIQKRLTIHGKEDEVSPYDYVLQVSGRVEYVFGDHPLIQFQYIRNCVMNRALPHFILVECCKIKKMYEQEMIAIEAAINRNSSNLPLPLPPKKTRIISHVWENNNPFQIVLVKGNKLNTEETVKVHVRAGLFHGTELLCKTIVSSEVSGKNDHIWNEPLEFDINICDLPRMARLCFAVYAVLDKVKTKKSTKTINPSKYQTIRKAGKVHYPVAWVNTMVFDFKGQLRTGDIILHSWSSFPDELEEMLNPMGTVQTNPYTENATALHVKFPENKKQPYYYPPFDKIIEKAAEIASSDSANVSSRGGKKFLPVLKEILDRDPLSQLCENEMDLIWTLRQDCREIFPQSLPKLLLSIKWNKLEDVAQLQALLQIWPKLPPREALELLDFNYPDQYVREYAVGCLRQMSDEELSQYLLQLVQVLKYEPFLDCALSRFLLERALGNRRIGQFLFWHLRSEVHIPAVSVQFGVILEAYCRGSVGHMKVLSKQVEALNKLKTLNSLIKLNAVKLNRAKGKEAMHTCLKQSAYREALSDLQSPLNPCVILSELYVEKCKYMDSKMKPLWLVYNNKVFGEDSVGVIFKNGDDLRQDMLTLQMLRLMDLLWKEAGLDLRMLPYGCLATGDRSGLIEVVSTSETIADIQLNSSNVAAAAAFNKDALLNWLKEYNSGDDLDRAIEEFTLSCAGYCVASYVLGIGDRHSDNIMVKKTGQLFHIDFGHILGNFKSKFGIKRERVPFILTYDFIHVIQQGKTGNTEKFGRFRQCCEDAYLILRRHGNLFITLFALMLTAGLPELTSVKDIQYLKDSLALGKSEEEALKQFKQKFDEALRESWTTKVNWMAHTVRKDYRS

PIK3CG (human), sequence (P48736 whole entry, looked up): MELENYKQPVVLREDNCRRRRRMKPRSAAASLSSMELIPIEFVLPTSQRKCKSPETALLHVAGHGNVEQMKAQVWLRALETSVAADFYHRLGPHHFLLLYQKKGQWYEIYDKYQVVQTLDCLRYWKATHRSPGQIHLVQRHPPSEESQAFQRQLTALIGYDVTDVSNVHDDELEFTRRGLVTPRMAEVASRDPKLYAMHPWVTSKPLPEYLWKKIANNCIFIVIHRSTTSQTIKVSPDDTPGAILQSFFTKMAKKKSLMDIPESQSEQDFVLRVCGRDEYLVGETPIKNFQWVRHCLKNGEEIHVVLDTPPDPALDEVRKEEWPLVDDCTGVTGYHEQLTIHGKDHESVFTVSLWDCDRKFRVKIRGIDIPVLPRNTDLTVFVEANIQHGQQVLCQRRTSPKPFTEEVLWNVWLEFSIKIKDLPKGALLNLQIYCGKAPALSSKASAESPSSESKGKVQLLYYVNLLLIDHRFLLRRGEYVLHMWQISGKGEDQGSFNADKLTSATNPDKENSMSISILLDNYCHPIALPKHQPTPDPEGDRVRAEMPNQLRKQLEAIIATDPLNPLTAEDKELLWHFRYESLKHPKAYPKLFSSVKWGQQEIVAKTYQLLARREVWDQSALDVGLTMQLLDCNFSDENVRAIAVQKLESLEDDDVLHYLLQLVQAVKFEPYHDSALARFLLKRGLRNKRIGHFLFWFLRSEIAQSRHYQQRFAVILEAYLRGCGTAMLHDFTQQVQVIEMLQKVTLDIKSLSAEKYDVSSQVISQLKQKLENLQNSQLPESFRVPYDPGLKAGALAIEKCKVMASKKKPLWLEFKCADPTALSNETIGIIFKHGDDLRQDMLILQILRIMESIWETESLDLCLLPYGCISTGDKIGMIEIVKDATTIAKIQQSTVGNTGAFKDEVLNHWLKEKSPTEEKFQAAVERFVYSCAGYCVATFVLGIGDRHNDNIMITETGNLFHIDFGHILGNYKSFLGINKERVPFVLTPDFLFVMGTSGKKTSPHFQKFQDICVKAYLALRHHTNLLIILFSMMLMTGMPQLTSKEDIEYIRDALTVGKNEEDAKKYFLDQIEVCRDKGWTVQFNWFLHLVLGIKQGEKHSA
PIK3CA (human), sequence (P42336 whole entry, looked up): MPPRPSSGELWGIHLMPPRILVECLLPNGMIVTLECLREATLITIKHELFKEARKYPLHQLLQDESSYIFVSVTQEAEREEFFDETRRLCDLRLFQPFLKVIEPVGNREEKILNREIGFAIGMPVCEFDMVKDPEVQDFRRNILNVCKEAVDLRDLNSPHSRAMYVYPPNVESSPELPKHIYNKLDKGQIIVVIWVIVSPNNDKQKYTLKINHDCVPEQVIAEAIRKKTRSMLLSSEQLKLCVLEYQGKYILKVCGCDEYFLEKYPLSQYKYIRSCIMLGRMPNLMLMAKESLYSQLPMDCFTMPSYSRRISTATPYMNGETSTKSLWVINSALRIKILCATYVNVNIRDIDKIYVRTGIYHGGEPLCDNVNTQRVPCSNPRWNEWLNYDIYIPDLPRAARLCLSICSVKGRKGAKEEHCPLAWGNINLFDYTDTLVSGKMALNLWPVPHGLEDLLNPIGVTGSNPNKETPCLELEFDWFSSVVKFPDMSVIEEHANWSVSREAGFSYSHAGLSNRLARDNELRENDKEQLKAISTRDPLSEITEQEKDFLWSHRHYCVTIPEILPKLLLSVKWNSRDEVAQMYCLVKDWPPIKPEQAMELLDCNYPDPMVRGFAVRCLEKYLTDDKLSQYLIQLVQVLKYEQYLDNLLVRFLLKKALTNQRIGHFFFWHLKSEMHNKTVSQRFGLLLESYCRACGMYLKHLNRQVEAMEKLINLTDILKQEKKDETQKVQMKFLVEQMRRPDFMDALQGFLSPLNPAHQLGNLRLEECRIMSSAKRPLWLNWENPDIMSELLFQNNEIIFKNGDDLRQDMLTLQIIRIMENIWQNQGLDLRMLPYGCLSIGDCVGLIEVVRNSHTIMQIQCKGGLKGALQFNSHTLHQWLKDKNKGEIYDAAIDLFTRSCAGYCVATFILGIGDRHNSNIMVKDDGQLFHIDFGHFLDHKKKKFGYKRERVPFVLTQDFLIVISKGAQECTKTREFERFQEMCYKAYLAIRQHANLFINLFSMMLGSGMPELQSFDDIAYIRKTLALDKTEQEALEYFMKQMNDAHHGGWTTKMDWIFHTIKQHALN
PIK3CD (Human), sequence (O00329 whole entry, looked up): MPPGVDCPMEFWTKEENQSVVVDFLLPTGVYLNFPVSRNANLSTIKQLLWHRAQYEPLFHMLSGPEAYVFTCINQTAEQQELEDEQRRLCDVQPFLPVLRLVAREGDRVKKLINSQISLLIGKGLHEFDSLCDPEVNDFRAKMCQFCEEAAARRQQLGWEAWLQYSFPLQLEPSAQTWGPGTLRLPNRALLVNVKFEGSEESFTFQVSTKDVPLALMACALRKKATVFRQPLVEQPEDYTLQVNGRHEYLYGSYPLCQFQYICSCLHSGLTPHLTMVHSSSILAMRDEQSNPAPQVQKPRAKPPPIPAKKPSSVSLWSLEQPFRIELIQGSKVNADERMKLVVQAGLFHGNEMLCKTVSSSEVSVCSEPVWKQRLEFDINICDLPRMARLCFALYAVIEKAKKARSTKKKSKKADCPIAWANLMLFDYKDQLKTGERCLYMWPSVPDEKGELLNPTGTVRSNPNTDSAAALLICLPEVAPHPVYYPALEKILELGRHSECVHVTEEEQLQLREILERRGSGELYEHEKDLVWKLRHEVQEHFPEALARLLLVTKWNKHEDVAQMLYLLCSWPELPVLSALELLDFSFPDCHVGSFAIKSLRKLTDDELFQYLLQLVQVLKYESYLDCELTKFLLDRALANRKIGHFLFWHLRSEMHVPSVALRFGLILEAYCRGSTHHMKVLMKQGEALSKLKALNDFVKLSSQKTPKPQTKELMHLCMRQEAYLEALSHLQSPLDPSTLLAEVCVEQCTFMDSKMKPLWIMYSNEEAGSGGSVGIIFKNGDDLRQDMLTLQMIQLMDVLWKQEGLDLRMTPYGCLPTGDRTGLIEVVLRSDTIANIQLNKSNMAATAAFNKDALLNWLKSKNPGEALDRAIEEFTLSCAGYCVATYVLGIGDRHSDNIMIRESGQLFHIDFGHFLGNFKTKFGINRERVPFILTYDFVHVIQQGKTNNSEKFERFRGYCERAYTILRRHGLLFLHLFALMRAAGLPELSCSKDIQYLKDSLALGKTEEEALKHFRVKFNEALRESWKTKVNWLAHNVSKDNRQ

| SMILES | IC50 (PIK3CA (human)) [nM] | IC50 (PIK3CG (human)) [nM] | IC50 (PIK3CD (Human)) [nM] | IC50 (PIK3CB (Human)) [nM] |
| --- | --- | --- | --- | --- |
| CCn1c(Cn2nc(-c3ccc4nc(NC(C)=O)sc4c3)c3c(N)ncnc32)cc2cccc(C)c2c1=O | < 100 | < 100 | < 100 |  |
| CC(=O)Nc1nc2ccc(-c3nn(Cc4cc5cccc(C)c5c(=O)n4C4CC4)c4ncnc(N)c34)cc2s1 | < 100 |  | < 100 | < 100 |
| CC(=O)Nc1nc2ccc(-c3nn(Cc4cc5cccc(C)c5c(=O)n4C4CCC4)c4ncnc(N)c34)cc2s1 | < 100 |  | < 100 |  |
| CNC(=O)Nc1nc2ccc(-c3nn(Cc4cc5cccc(C)c5c(=O)n4-c4ccccc4C)c4ncnc(N)c34)cc2s1 | < 100 | < 100 | < 100 |  |
| CC(=O)Nc1nc2ccc(-c3nn(Cc4cc5cccc(C)c5c(=O)n4C(C)C)c4ncnc(N)c34)cc2s1 | < 100 |  | < 100 |  |
| CC(=O)Nc1nc2ccc(-c3nn(Cc4cc5cccc(C)c5c(=O)n4C)c4ncnc(N)c34)cc2s1 | < 100 |  | < 100 |  |
| Cc1cccc2cc(Cn3nc(-c4cc(O)cc(F)c4)c4c(N)ncnc43)n(C3CC3)c(=O)c12 |  | < 100 | < 100 | < 100 |
| CC(=O)Nc1nc2ccc(-c3nn(Cc4cc5cccc(Cl)c5c(=O)n4C(C)C)c4ncnc(N)c34)cc2s1 | < 100 |  | < 100 | < 100 |
| CC(=O)Nc1nc2ccc(-c3nn(Cc4cc5cccc(Cl)c5c(=O)n4C4CC4)c4ncnc(N)c34)cc2s1 | < 100 |  | < 100 | < 100 |
| Nc1ncnc2c1c(-c1cc(O)cc(F)c1)nn2Cc1cc2cccc(Cl)c2c(=O)n1C1CC1 | < 100 | < 100 | < 100 | < 100 |
| Cc1ccccc1-n1c(Cn2nc(-c3ccc4nc(N)ncc4c3)c3c(N)ncnc32)cc2cccc(C)c2c1=O | < 100 | < 100 | < 100 |  |
| Cc1ccccc1-n1c(Cn2nc(-c3ccc4nc(N)ccc4c3)c3c(N)ncnc32)cc2cccc(C)c2c1=O |  | < 100 | < 100 |  |
| Cc1ccccc1-n1c(Cn2nc(I)c3c(N)ncnc32)cc2cccc(C)c2c1=O |  | < 100 | < 100 |  |
| Cc1cccc2cc(Cn3nc(-c4cc(O)cc(F)c4)c4c(N)ncnc43)n(-c3ccccc3Cl)c(=O)c12 |  | < 100 | < 100 |  |
| COc1ccccc1-n1c(Cn2nc(-c3cc(O)cc(F)c3)c3c(N)ncnc32)nc2scc(C)c2c1=O |  | < 100 | < 100 |  |
| Cc1cccc2cc(Cn3nc(-c4cccc(O)c4)c4c(N)ncnc43)n(C3CC3)c(=O)c12 |  | < 100 | < 100 |  |
| CCc1ccccc1-n1c(Cn2nc(I)c3c(N)ncnc32)cc2cccc(C)c2c1=O |  | < 100 | < 100 |  |

| SMILES | IC50 (PIK3CA (human)) [nM] | IC50 (PIK3CG (human)) [nM] | IC50 (PIK3CD (Human)) [nM] | IC50 (PIK3CB (Human)) [nM] |
| --- | --- | --- | --- | --- |
| Cc1ccccc1-n1c(C(C)Nc2ncnc3[nH]cnc23)cc2cccc(C)c2c1=O (stereo not given) |  | < 100 | < 100 |  |
| Cc1ccccc1-n1c(Cn2nc(-c3cccc(O)c3)c3c(N)ncnc32)nc2scc(C)c2c1=O |  | < 100 | < 100 |  |
| Cc1ccccc1-n1c(Cn2nc(-c3cn[nH]c3)c3c(N)ncnc32)cc2cccc(C)c2c1=O |  | < 100 | < 100 |  |
| CC(=O)Nc1nc2ccc(-c3nn(Cc4cc5cccc(F)c5c(=O)n4C(C)C)c4ncnc(N)c34)cc2s1 | < 100 |  | < 100 |  |
| Cc1ccccc1-n1c(Cn2nc(-c3ccc(Cl)c(O)c3)c3c(N)ncnc32)cc2cccc(C)c2c1=O |  | < 100 | < 100 |  |
| CC(=O)Nc1nc2ccc(-c3nn(Cc4cc5ccccc5c(=O)n4-c4ccccc4C)c4ncnc(N)c34)cc2s1 |  | < 100 | < 100 |  |
| Cc1ccccc1-n1c(Cn2nc(-c3ccc4cc[nH]c4c3)c3c(N)ncnc32)cc2cccc(C)c2c1=O |  | < 100 | < 100 |  |
| COc1ccccc1-n1c(Cn2nc(-c3cccc(O)c3)c3c(N)ncnc32)cc2cccc(C)c2c1=O |  | < 100 | < 100 |  |
| Cc1cccc2cc(Cn3nc(-c4ccc(F)c(O)c4)c4c(N)ncnc43)n(C(C)C)c(=O)c12 |  | < 100 | < 100 |  |
| Cc1ccccc1-n1c(Cn2nc(-c3cccc(O)c3)c3c(N)ncnc32)cc2nccc(C)c2c1=O |  | < 100 | < 100 |  |
| Cc1csc2nc(Cn3nc(Br)c4c(N)ncnc43)n(-c3ccccc3C(C)C)c(=O)c12 |  | < 100 | < 100 |  |
| Cc1ccccc1-n1c(Cn2nc(-c3ccc(O)c(Cl)c3)c3c(N)ncnc32)nc2scc(C)c2c1=O |  | < 100 | < 100 |  |
| Cc1ccccc1-n1c(Cn2nc(-c3ccc4nc(N)sc4c3)c3c(N)ncnc32)cc2cccc(C)c2c1=O |  | < 100 | < 100 |  |
| Cc1ccccc1-n1c(Cn2nc(-c3cnc4[nH]ccc4c3)c3c(N)ncnc32)cc2cccc(C)c2c1=O |  | < 100 | < 100 |  |
| Cc1cccc2cc(Cn3nc(-c4cccc(O)c4)c4c(N)ncnc43)n(C(C)C)c(=O)c12 |  | < 100 | < 100 |  |
| COc1ccccc1-n1c(Cn2nc(-c3cc(O)cc(F)c3)c3c(N)ncnc32)cc2cccc(C)c2c1=O |  | < 100 | < 100 |  |
